Measured values reported in patent US9056835B2, “LPA2 receptor-specific benzoic acid derivatives” (University of Tennessee Research Foundation, priority 2012, dated 2015).

Key:
Type in all cases: cell-based, mouse
PARP-1 = assay: Immunoblot, PARP-1 cleavage; conditions: 10 μM
Procedure: (§1) Experiments were performed on vector- and LPA2-transduced MEF cells. To measure caspase 3, 7, 8, or 9 activity and DNA fragmentation, cells were plated in 48-well plates (2×10^4 cells/well). To detect PARP-1 cleavage and Bax translocation, 1.5×10^6 cells were plated in 10-cm dishes and cultured overnight in full growth medium. The next morning, the growth medium was replaced by serum-starvation medium and cells were pretreated for 1 h with LPA (1-10 μM), OTP (1-10 μM), GRI977143 (1-10 μM), or vehicle. Caspase activity, DNA fragmentation, PARP-1 cleavage, and Bax translocation were measured 5 h after incubation with 1.7 μM Adriamycin or 24 h after serum withdrawal.
To detect ligand-induced ERK1/2 activation, vector- and LPA2-transfected MEF cells were serum starved 3 h before exposure to 1 μM LPA, 1 μM OTP, 10 μM GRI977143, or vehicle for 10 min. For ERK1/2 activation and PARP-1 cleavage measurements, cells were harvested in 1× Laemmli sample buffer and separated using 12% Laemmli SDS-polyacrylamide gels. To assess Bax translocation, cell lysates were separated into cytosolic, mitochondrial, and nuclear fractions using the Cell Fractionation Kit-Standard (MitoSciences; Eugene, Oreg.). […] Samples were boiled for 5 min and loaded onto 12% SDS-polyacrylamide gels. Western blotting was carried out as previously described (Valentine et al., 2010). […]

ERK1/2 = assay: Immunoblot, ERK1/2 activation; conditions: 10 μM, 10 min
Procedure: (§2) To detect ligand-induced ERK1/2 activation, vector- and LPA2-transfected MEF cells were serum starved 3 h before exposure to 1 μM LPA, 1 μM OTP, 10 μM GRI977143, or vehicle for 10 min. For ERK1/2 activation and PARP-1 cleavage measurements, cells were harvested in 1× Laemmli sample buffer and separated using 12% Laemmli SDS-polyacrylamide gels. To assess Bax translocation, cell lysates were separated into cytosolic, mitochondrial, and nuclear fractions using the Cell Fractionation Kit-Standard (MitoSciences; Eugene, Oreg.). […] Samples were boiled for 5 min and loaded onto 12% SDS-polyacrylamide gels. Western blotting was carried out as previously described (Valentine et al., 2010). Primary antibodies against pERK1/2, PARP-1, Bax (Cell Signaling Technology; Beverly, Mass.), actin (Sigma-Aldrich), and anti-rabbit-horseradish peroxidase secondary antibodies (Promega) were used according to the instructions of the manufacturer.

Bax = assay: Immunoblot, Bax translocation; conditions: 10 μM
Procedure: as §1, §2

With `O=C(O)c1ccccc1SCCCN1C(=O)c2cccc3cccc(c23)C1=O` [GRI977143] the PARP-1 cleavage (PARP-1; LPA2-transduced MEF, Adriamycin or serum withdrawal) was “reduced PARP-1 cleavage”, the PARP-1 cleavage (PARP-1; vector-transduced cells) was “not observed” and the “increase in ERK1/2 activation” value (ERK1/2; LPA2-transduced MEF) was 9.6 fold. For the same compound, the ERK1/2 basal activity (ERK1/2; vector-transduced MEF) was “did not alter the basal activity”, the “Bax translocation to the mitochondria” value (Bax; LPA2-transduced MEF, Adriamycin) was “maintained a high level of Bax in the cytoplasm” and the “cytosolic Bax level” value (Bax; serum withdrawal model) was “did not detect any change in cytosolic Bax level”. For the same compound, the Bax translocation (Bax; vector-transduced MEF, Adriamycin) was “failed to reduce Bax translocation”.
